Assay type in all cases: in vivo
For assay [1], the system named is ragweed (common ragweed, Ambrosia elatior). Kind of assay: Test A preemergence. Conditions: Ambrosia artemisiifolia, pre-emergence, 240 h; for pest or weed control at 125 g/ha: 125 g ai/ha, preemergence, visual rating after approx. 10 d, 0 to 100 scale where 0 is no effect and 100 is complete control, read-out: Plant response rating, Ragweed; for pest or weed control at 500 g/ha: 500 g ai/ha, Preemergence, visual injury vs untreated controls after approximately 10 d, read-out: Ragweed plant response rating (0 to 100 scale where 0 is no effect and 100 is complete control). An outline of the steps:
(§1)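 Each rating is a visual injury score from 0 to 100 given about 10 d after treatment, judged against untreated controls kept alongside in the greenhouse. In loam soil–sand blend, seeds got a preemergence directed soil spray, while postemergence plants were 2 to 10 cm tall at spraying.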

Assay [2] concerns barnyardgrass (Echinochloa crus-galli). The assay is described as follows: Test A preemergence. As to conditions: Echinochloa crus-galli, pre-emergence, 240 h; for pest or weed control at 125 g/ha: 125 g ai/ha, preemergence, visual rating after approx. 10 d, 0 to 100 scale where 0 is no effect and 100 is complete control, read-out: Plant response rating, Barnyardgrass; for pest or weed control at 500 g/ha: 500 g ai/ha, Preemergence, visual injury vs untreated controls after approximately 10 d, read-out: Barnyardgrass plant response rating (0 to 100 scale where 0 is no effect and 100 is complete control). An outline of the steps: as §1

Assay [3] concerns ryegrass, Italian (Italian ryegrass, Lolium multiflorum). The assay is described as follows: Test A preemergence. As to conditions: Lolium multiflorum, pre-emergence, 240 h; for pest or weed control at 125 g/ha: 125 g ai/ha, preemergence, visual rating after approx. 10 d, 0 to 100 scale where 0 is no effect and 100 is complete control, read-out: Plant response rating, Ryegrass, Italian; for pest or weed control at 500 g/ha: 500 g ai/ha, Preemergence, visual injury vs untreated controls after approximately 10 d, read-out: Ryegrass, Italian plant response rating (0 to 100 scale where 0 is no effect and 100 is complete control). An outline of the steps: as §1

Assay [4] relates to Kochia (Kochia scoparia). Kind of assay: Test A preemergence. Conditions: Bassia scoparia, pre-emergence, 240 h; for pest or weed control at 500 g/ha: 500 g ai/ha, Preemergence, visual injury vs untreated controls after approximately 10 d, read-out: Kochia plant response rating (0 to 100 scale where 0 is no effect and 100 is complete control). An outline of the steps: as §1
Assay [5] has as its system pigweed (Amaranthus retroflexus). The assay is described as follows: Test A preemergence. As to conditions: Amaranthus retroflexus, pre-emergence, 240 h; for pest or weed control at 125 g/ha: 125 g ai/ha, preemergence, visual rating after approx. 10 d, 0 to 100 scale where 0 is no effect and 100 is complete control, read-out: Plant response rating, Pigweed; for pest or weed control at 500 g/ha: 500 g ai/ha, Preemergence, visual injury vs untreated controls after approximately 10 d, read-out: Pigweed plant response rating (0 to 100 scale where 0 is no effect and 100 is complete control).

In assay [6] the test system is giant foxtail (Setaria faberii). The assay is described as follows: Test A preemergence. Conditions: Setaria faberi, pre-emergence, 240 h; for pest or weed control at 125 g/ha: 125 g ai/ha, preemergence, visual rating after approx. 10 d, 0 to 100 scale where 0 is no effect and 100 is complete control, read-out: Plant response rating, Foxtail, Giant; for pest or weed control at 500 g/ha: 500 g ai/ha, Preemergence, visual injury vs untreated controls after approximately 10 d, read-out: Foxtail, Giant plant response rating (0 to 100 scale where 0 is no effect and 100 is complete control). An outline of the steps: as §1

The next assay deals with corn (Zea mays). The assay is described as follows: Test A postemergence. Conditions: Zea mays, post-emergence, 240 h, 125 g ai/ha, postemergence; visual injury after approximately 10 d; 0 to 100 scale (0 no effect, 100 complete control). An outline of the steps:
as §1

In assay [7] the test system is ragweed (common ragweed, Ambrosia elatior). The assay is described as follows: Test A postemergence. As to conditions: Ambrosia artemisiifolia, post-emergence, 240 h, 125 g ai/ha, postemergence; visual injury after approximately 10 d; 0 to 100 scale (0 no effect, 100 complete control); read-out: Plant response rating, Ragweed. An outline of the steps: as §1
The test system of assay [8] is barnyardgrass (Echinochloa crus-galli). The assay is described as follows: Test A postemergence. Conditions: Echinochloa crus-galli, post-emergence, 240 h, 125 g ai/ha, postemergence; visual injury after approximately 10 d; 0 to 100 scale (0 no effect, 100 complete control); read-out: Plant response rating, Barnyardgrass. An outline of the steps: as §1
The test system of assay [9] is ryegrass, Italian (Italian ryegrass, Lolium multiflorum). The assay is described as follows: Test A postemergence. As to conditions: Lolium multiflorum, post-emergence, 240 h, 125 g ai/ha, postemergence; visual injury after approximately 10 d; 0 to 100 scale (0 no effect, 100 complete control); read-out: Plant response rating, Ryegrass, Italian. An outline of the steps: as §1

Assay [10] relates to Galium (catchweed bedstraw, Galium aparine). Kind of assay: Test A postemergence. As to conditions: Galium, post-emergence, 240 h, 125 g ai/ha, postemergence; visual injury after approximately 10 d; 0 to 100 scale (0 no effect, 100 complete control); read-out: Plant response rating, Galium. An outline of the steps: as §1
Assay [11] relates to Kochia (Kochia scoparia). The assay is described as follows: Test A postemergence. As to conditions: Bassia scoparia, post-emergence, 240 h, 125 g ai/ha, postemergence; visual injury after approximately 10 d; 0 to 100 scale (0 no effect, 100 complete control); read-out: Plant response rating, Kochia. An outline of the steps:
as §1

Assay [12] concerns pigweed (Amaranthus retroflexus). The assay is described as follows: Test A postemergence. Conditions: Amaranthus retroflexus, post-emergence, 240 h, 125 g ai/ha, postemergence; visual injury after approximately 10 d; 0 to 100 scale (0 no effect, 100 complete control); read-out: Plant response rating, Pigweed. An outline of the steps: as §1
Assay [13] deals with giant foxtail (Setaria faberii). Kind of assay: Test A postemergence. Conditions: Setaria faberi, post-emergence, 240 h, 125 g ai/ha, postemergence; visual injury after approximately 10 d; 0 to 100 scale (0 no effect, 100 complete control); read-out: Plant response rating, Foxtail, Giant. An outline of the steps:
as §1

The structures appear in SMILES notation.

For the compound `Cc1cc([C@H]2CNC(=O)[C@@H]2C(=O)Nc2ccccc2F)ccc1Cl` [Compound 789], the pest or weed control at 125 g/ha was 0% in assay [1]; 90% in assay [2]; 0% in assay [3]; 0% in assay [5]; 60% in assay [6]; 0% in assay [7]. Moreover, the pest or weed control at 125 g/ha in assay [8] came out at 80%; in assay [9], 0%; in assay [10], 40%; in the assay with Kochia (Kochia scoparia) [11], 0%; in [12], 0%; in assay [13], 30%. The pest or weed control at 500 g/ha in assay [1] stood at 0%; in [2], 90%; in assay [3] it was 0%; in the assay with Kochia (Kochia scoparia) [4] it was 30%; in [5], 20%; in assay [6], 90%. For the same compound, the Corn plant response rating (crop injury, 0 = no effect, 100 = complete kill) at 125 g/ha in the assay with corn (Zea mays) was determined as 20%.

With `Cc1cc([C@H]2CNC(=O)[C@@H]2C(=O)Nc2cccc(F)c2F)ccc1Cl` [Compound 790], the pest or weed control at 125 g/ha in assay [1] came out at 20%; in [2], 90%; in assay [3], 30%; with Kochia (Kochia scoparia) [4] (125 g ai/ha, preemergence, visual rating after approx. 10 d, 0 to 100 scale where 0 is no effect and 100 is complete control, read-out: Plant response rating, Kochia), 70%; in assay [5], 0%; in assay [6] it was 70%. In addition, the pest or weed control at 125 g/ha in [7] was 30%; in assay [8], 80%; in assay [9] it was 0%; in assay [10], 50%; in the assay on Kochia (Kochia scoparia) [11], 40%; in assay [12], 20%. Also, in [13], the pest or weed control at 125 g/ha turned out to be 50%. Also, the pest or weed control at 500 g/ha in assay [1] turned out to be 60%; in assay [2], 90%; in assay [3], 70%; with Kochia (Kochia scoparia) [4], 80%; in assay [5], 40%; in assay [6], 90%. The compound further had a Corn plant response rating (crop injury, 0 = no effect, 100 = complete kill) at 125 g/ha with corn (Zea mays) of 30%.

(Values after patent US12077503B2, “Substituted cyclic amides and their use as herbicides” (FMC CORPORATION, priority 2015, dated 2024).)
